Test results from US20240208957A1, “TRIAZINE DERIVATIVE AS REVERSIBLE AND IRREVERSIBLE COVALENT INHIBITORS OF PI3K” (UNIVERSITÄT BASEL, priority 2021, published 2024).
Read-outs that look alike come from different tables or passages of the source.

What was measured:
[1] = biological target: p110α (PI3Kα) (Homo sapiens, UniProt P42336); experiment: LanthaScreen determination of kinetic constants (kinact, Ki) for p110α; format: binding; details: for Ki: dissociation constant of the first reversible binding, mean of 3; for kinact: read-out: kinact PI3Kα;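 for all read-outs here: covalent inhibition constants for p110α come from LanthaScreen data, fitted globally by numerical integration in KinTek Global Kinetic Explorer software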
Description: Apparent dissociation constants of compounds [Ki(app)] for p110α were determined by LanthaScreen Technology (Life Technologies), as described in Ref.^21.
Maximum potential rate of covalent bond formation (Kinact) and dissociation constant of the first reversible binding (Ki) of compounds for p110α were determined by LanthaScreen Technology (Life Technologies). The calculation of kinetic parameters was carried out through global fitting for numerical integration by using KinTek Global Kinetic Explorer modelling software^22-27.

[2] = system: pSer473 of PKB/Akt in SKOV3 cells; experiment: In-Cell Western cellular PI3K signaling, pSer473 of PKB/Akt in SKOV3 cells; format: cell-based; details: Homo sapiens
Description: Protein phosphorylation was detected as follows: pSer473 of PKB/Akt with rabbit polyclonal antibody from Cell Signaling Technology (CST) (#4058) by In-Cell Western assays, where 1.2×10^4 SKOV3 cells/well in 96-well plates were plated (Cell Carrier, PerkinElmer) for 24 hours (37° C., 5% CO2), as described in Ref.^21.

[3] = SK-OV-3, read-out: IC50 pPKB (S473) SKOV3
[4] = mean of 3 independent measurements, global fitting with KinTek
[5] = SK-OV-3, SKOV3 cells, mean of 2 or 3 independent measurements, read-out: IC50 pPKB (S473) SKOV3

Sequence of p110α (PI3Kα) (P42336 whole entry): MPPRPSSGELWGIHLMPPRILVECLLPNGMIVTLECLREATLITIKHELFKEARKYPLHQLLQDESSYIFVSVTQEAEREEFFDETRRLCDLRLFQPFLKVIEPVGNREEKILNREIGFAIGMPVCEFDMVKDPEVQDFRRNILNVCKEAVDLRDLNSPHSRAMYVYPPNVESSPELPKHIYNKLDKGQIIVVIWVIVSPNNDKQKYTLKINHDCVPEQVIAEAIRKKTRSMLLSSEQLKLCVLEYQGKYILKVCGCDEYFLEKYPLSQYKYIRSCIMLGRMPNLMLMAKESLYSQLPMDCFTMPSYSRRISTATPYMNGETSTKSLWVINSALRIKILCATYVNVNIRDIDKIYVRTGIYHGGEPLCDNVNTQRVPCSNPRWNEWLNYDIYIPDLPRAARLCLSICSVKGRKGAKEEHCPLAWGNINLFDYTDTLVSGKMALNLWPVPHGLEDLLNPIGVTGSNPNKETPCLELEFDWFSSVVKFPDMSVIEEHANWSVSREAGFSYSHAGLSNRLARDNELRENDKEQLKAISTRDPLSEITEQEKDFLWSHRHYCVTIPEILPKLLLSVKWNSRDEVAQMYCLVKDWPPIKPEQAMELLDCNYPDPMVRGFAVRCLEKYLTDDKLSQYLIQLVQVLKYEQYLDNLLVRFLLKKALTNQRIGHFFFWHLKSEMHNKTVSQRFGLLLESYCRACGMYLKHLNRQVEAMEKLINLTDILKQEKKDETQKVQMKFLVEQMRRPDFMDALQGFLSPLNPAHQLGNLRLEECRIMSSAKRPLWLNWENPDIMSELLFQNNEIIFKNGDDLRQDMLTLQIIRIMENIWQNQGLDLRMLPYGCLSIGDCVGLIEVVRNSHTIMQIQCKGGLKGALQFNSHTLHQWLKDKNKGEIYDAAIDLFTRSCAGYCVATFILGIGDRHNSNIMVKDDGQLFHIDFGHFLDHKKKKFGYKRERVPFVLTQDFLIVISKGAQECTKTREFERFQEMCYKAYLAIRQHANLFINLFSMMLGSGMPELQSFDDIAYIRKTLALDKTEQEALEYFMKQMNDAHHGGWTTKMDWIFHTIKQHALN
Sequence of p110α (PI3Kα) (P27986 whole entry partner): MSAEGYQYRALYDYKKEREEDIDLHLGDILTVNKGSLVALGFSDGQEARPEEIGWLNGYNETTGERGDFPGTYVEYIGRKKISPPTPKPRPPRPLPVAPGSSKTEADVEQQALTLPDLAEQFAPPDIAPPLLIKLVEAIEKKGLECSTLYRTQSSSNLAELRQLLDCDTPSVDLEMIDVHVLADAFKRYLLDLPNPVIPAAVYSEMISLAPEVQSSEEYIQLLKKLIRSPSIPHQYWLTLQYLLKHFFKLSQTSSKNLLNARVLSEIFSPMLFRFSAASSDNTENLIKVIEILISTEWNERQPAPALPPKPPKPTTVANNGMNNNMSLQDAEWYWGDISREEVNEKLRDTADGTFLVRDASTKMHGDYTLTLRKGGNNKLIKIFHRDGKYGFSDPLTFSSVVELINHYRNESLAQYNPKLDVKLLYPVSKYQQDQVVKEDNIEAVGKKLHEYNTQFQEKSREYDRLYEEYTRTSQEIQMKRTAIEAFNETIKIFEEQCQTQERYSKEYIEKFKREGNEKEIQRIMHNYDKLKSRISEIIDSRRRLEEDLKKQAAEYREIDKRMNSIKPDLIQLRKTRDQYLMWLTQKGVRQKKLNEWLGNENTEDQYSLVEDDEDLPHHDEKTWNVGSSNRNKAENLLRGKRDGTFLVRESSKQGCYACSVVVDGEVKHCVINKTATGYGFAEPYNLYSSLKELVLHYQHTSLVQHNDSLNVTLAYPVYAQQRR

| SMILES | kinact/KI [1] | Ki [1] | kinact [1] | IC50 [2, 3] | kinact/KI ([1]; PI3Kα, read-out: kinact/Ki) | kinact [1, 4] | IC50 [2, 5] |
| --- | --- | --- | --- | --- | --- | --- | --- |
| C=CC(=O)N1CCC[C@@H](COCC(=O)N2CCN(c3nc(-c4cnc(N)nc4C(F)F)nc(N4CCOC[C@@H]4C)n3)CC2)C1 [Compound 1, 1-((R)-3-((2-(4-(4-(2-amino-4-(difluoromethyl)pyrimidin-5-yl)-6-((S)-3-methylmorpholino)-1,3,5-triazin-2-yl)piperazin-1-yl)-2-oxoethoxy)methyl)piperidin-1-yl)prop-2-en-1-one] | 156000 M⁻¹ s⁻¹ | 2.7 nM | 0.000419 s⁻¹ | 25.4 nM | – | – | – |
| C=CC(=O)N1CCC[C@H](COCC(=O)N2CCN(c3nc(-c4cnc(N)nc4C(F)F)nc(N4CCOC[C@@H]4C)n3)CC2)C1 [Compound 2, 1-((S)-3-((2-(4-(4-(2-amino-4-(difluoromethyl)pyrimidin-5-yl)-6-((S)-3-methylmorpholino)-1,3,5-triazin-2-yl)piperazin-1-yl)-2-oxoethoxy)methyl)piperidin-1-yl)prop-2-en-1-one] | – | 2.78 nM | – | – | 94300 M⁻¹ s⁻¹ | 0.000262 s⁻¹ | 28.8 nM |
| C=CC(=O)N1CC[C@H](COCC(=O)N2CCN(c3nc(-c4cnc(N)nc4C(F)F)nc(N4CCOC[C@@H]4C)n3)CC2)C1 [Compound 3, 1-((S)-3-((2-(4-(4-(2-amino-4-(difluoromethyl)pyrimidin-5-yl)-6-((S)-3-methylmorpholino)-1,3,5-triazin-2-yl)piperazin-1-yl)-2-oxoethoxy)methyl)pyrrolidin-1-yl)prop-2-en-1-one] | – | – | – | – | 502000 M⁻¹ s⁻¹ | 0.000432 s⁻¹ | 23 nM |
| C=CC(=O)N1CC[C@@H](COCC(=O)N2CCN(c3nc(-c4cnc(N)nc4C(F)F)nc(N4CCOC[C@@H]4C)n3)CC2)C1 [Compound 4, 1-((R)-3-((2-(4-(4-(2-amino-4-(difluoromethyl)pyrimidin-5-yl)-6-((S)-3-methylmorpholino)-1,3,5-triazin-2-yl)piperazin-1-yl)-2-oxoethoxy)methyl)pyrrolidin-1-yl)prop-2-en-1-one] | – | 11.7 nM | – | – | 325000 M⁻¹ s⁻¹ | 0.00383 s⁻¹ | 35.7 nM |
| C=CC(=O)N1CCC[C@@H](OCCC(=O)N2CCN(c3nc(-c4cnc(N)nc4C(F)F)nc(N4CCOC[C@@H]4C)n3)CC2)C1 [Compound 5, 1-((R)-3-(3-(4-(4-(2-amino-4-(difluoromethyl)pyrimidin-5-yl)-6-((S)-3-methylmorpholino)-1,3,5-triazin-2-yl)piperazin-1-yl)-3-oxopropoxy)piperidin-1-yl)prop-2-en-1-one] | 595000 M⁻¹ s⁻¹ | 8.88 nM | 0.0052 s⁻¹ | 17.1 nM | – | – | – |
| N#C/C(=C/C1CC1)C(=O)N1CCC[C@@H](COCC(=O)N2CCN(c3nc(-c4cnc(N)nc4C(F)F)nc(N4CCOCC4)n3)CC2)C1 [Compound 8, (R,Z)-2-(3-((2-(4-(4-(2-amino-4-(difluoromethyl)pyrimidin-5-yl)-6-morpholino-1,3,5-triazin-2-yl)piperazin-1-yl)-2-oxoethoxy)methyl)piperidine-1-carbonyl)-3-cyclopropylacrylonitrile] | 3.96e+06 M⁻¹ s⁻¹ | 2.78 nM | 0.011 s⁻¹ | 11.6 nM | – | – | – |
| N#C/C(=C/C1CC1)C(=O)N1CC[C@H](COCC(=O)N2CCN(c3nc(-c4cnc(N)nc4C(F)F)nc(N4CCOCC4)n3)CC2)C1 [Compound 9, (S,Z)-2-(3-((2-(4-(4-(2-amino-4-(difluoromethyl)pyrimidin-5-yl)-6-morpholino-1,3,5-triazin-2-yl)piperazin-1-yl)-2-oxoethoxy)methyl)pyrrolidine-1-carbonyl)-3-cyclopropylacrylonitrile] | – | 1.11 nM | – | – | 9.43e+06 M⁻¹ s⁻¹ | 0.0105 s⁻¹ | 14.4 nM |
| N#C/C(=C/C1CC1)C(=O)N1CC[C@@H](COCC(=O)N2CCN(c3nc(-c4cnc(N)nc4C(F)F)nc(N4CCOCC4)n3)CC2)C1 [Compound 10, (R,Z)-2-(3-((2-(4-(4-(2-amino-4-(difluoromethyl)pyrimidin-5-yl)-6-morpholino-1,3,5-triazin-2-yl)piperazin-1-yl)-2-oxoethoxy)methyl)pyrrolidine-1-carbonyl)-3-cyclopropylacrylonitrile] | – | 1.09 nM | – | – | 1.02e+07 M⁻¹ s⁻¹ | 0.0111 s⁻¹ | 23.1 nM |
| C=C(F)C(=O)N1CCC[C@@H](COCC(=O)N2CCN(c3nc(-c4cnc(N)nc4C(F)F)nc(N4CCOCC4)n3)CC2)C1 [Compound 11, (R)-1-(3-((2-(4-(4-(2-amino-4-(difluoromethyl)pyrimidin-5-yl)-6-morpholino-1,3,5-triazin-2-yl)piperazin-1-yl)-2-oxoethoxy)methyl)piperidin-1-yl)-2-fluoroprop-2-en-1-one] | – | 1.85 nM | – | – | – | – | 19.9 nM |
| C=C(F)C(=O)N1CCC[C@H](COCC(=O)N2CCN(c3nc(-c4cnc(N)nc4C(F)F)nc(N4CCOCC4)n3)CC2)C1 [Compound 12, (S)-1-(3-((2-(4-(4-(2-amino-4-(difluoromethyl)pyrimidin-5-yl)-6-morpholino-1,3,5-triazin-2-yl)piperazin-1-yl)-2-oxoethoxy)methyl)piperidin-1-yl)-2-fluoroprop-2-en-1-one] | – | – | – | – | – | – | 15.4 nM |
| Nc1ncc(-c2nc(N3CCOCC3)nc(N3CCN(C(=O)COC[C@@H]4CCCN(C(=O)/C=C/CF)C4)CC3)n2)c(C(F)F)n1 [Compound 13, (R,E)-1-(3-((2-(4-(4-(2-amino-4-(difluoromethyl)pyrimidin-5-yl)-6-morpholino-1,3,5-triazin-2-yl)piperazin-1-yl)-2-oxoethoxy)methyl)piperidin-1-yl)-4-fluorobut-2-en-1-one] | – | – | – | – | – | – | 18 nM |
| Nc1ncc(-c2nc(N3CCOCC3)nc(N3CCN(C(=O)COC[C@H]4CCCN(C(=O)/C=C/CF)C4)CC3)n2)c(C(F)F)n1 [Compound 14, (S,E)-1-(3-((2-(4-(4-(2-amino-4-(difluoromethyl)pyrimidin-5-yl)-6-morpholino-1,3,5-triazin-2-yl)piperazin-1-yl)-2-oxoethoxy)methyl)piperidin-1-yl)-4-fluorobut-2-en-1-one] | – | 1.91 nM | – | – | – | – | 22.2 nM |
| C=CC(=O)N1CCC[C@@H](C(=O)NCCN2CCN(c3nc(-c4cnc(N)nc4C(F)F)nc(N4CCOCC4)n3)CC2)C1 [Compound 19, (R)-1-acryloyl-N-(2-(4-(4-(2-amino-4-(difluoromethyl)pyrimidin-5-yl)-6-morpholino-1,3,5-triazin-2-yl)piperazin-1-yl)ethyl)piperidine-3-carboxamide] | – | 12 nM | – | – | 16300 M⁻¹ s⁻¹ | 0.000196 s⁻¹ | 28.8 nM |
| C/C=C/C(=O)N1CC(C(=O)N(C)CC(=O)N2CCN(c3nc(-c4cnc(N)nc4C(F)F)nc(N4CCOCC4)n3)CC2)C1 [Compound 34, (E)-N-(2-(4-(4-(2-amino-4-(difluoromethyl)pyrimidin-5-yl)-6-morpholino-1,3,5-triazin-2-yl)piperazin-1-yl)-2-oxoethyl)-1-(but-2-enoyl)-N-methylazetidine-3-carboxamide] | – | – | – | – | – | – | 236 nM |
| C=CC(=O)N1CC(C(=O)NCCN2CCN(c3nc(-c4cnc(N)nc4C(F)F)nc(N4CCOCC4)n3)CC2)C1 [Compound 36, 1-acryloyl-N-(2-(4-(4-(2-amino-4-(difluoromethyl)pyrimidin-5-yl)-6-morpholino-1,3,5-triazin-2-yl)piperazin-1-yl)ethyl)azetidine-3-carboxamide] | – | – | – | – | – | – | 48.2 nM |
| C=CC(=O)N1CCO[C@@H](COCC(=O)N2CCN(c3nc(-c4cnc(N)nc4C(F)F)nc(N4CCOC[C@@H]4C)n3)CC2)C1 [Compound 40, 1-((R)-2-((2-(4-(4-(2-amino-4-(difluoromethyl)pyrimidin-5-yl)-6-((S)-3-methylmorpholino)-1,3,5-triazin-2-yl)piperazin-1-yl)-2-oxoethoxy)methyl)morpholino)prop-2-en-1-one] | – | 7.27 nM | – | – | 224000 M⁻¹ s⁻¹ | 0.00163 s⁻¹ | – |
| C[C@H]1COCCN1c1nc(-c2cnc(N)nc2C(F)F)nc(N2CCN(C(=O)COC[C@H]3CN(C(=O)/C(C#N)=C\C4CC4)CCO3)CC2)n1 [Compound 41, (Z)-2-((R)-2-((2-(4-(4-(2-amino-4-(difluoromethyl)pyrimidin-5-yl)-6-((S)-3-methylmorpholino)-1,3,5-triazin-2-yl)piperazin-1-yl)-2-oxoethoxy)methyl)morpholine-4-carbonyl)-3-cyclopropylacrylonitrile] | – | 11.6 nM | – | – | 1.05e+06 M⁻¹ s⁻¹ | 0.0121 s⁻¹ | – |
| C=CC(=O)N1CCO[C@H](COCC(=O)N2CCN(c3nc(-c4cnc(N)nc4C(F)F)nc(N4CCOC[C@@H]4C)n3)CC2)C1 [Compound 42, 1-((S)-2-((2-(4-(4-(2-amino-4-(difluoromethyl)pyrimidin-5-yl)-6-((S)-3-methylmorpholino)-1,3,5-triazin-2-yl)piperazin-1-yl)-2-oxoethoxy)methyl)morpholino)prop-2-en-1-one] | – | 7.1 nM | – | – | 75400 M⁻¹ s⁻¹ | 0.000537 s⁻¹ | – |
| C[C@H]1COCCN1c1nc(-c2cnc(N)nc2C(F)F)nc(N2CCN(C(=O)COC[C@@H]3CN(C(=O)/C(C#N)=C\C4CC4)CCO3)CC2)n1 [Compound 43, (Z)-2-((S)-2-((2-(4-(4-(2-amino-4-(difluoromethyl)pyrimidin-5-yl)-6-((S)-3-methylmorpholino)-1,3,5-triazin-2-yl)piperazin-1-yl)-2-oxoethoxy)methyl)morpholine-4-carbonyl)-3-cyclopropylacrylonitrile] | – | 13.8 nM | – | – | 1.04e+06 M⁻¹ s⁻¹ | 0.0143 s⁻¹ | – |
